Reference: PubChem BioAssay (NCI)
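Protocol summary: plate cells (96-well), add compound at 5 concentrations, incubate 48 h, interpolate endpoints linearly. The concentration for full growth arrest is given as TGI.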

Columns and labels:
Test in all cases: inhibition of tumour cell growth, NCI panel, 48 h
[1] = test system: M19-MEL melanoma
[2] = test system: SK-MEL-5 melanoma
[3] = test system: IGROV1 ovarian
[4] = test system: EKVX NSCLC
[5] = test system: HOP-18 NSCLC
[6] = test system: CAKI-1 renal
[7] = test system: NCI-H226 lung
[8] = test system: MOLT-4 leukemia
[9] = test system: OVCAR-8 ovarian
[10] = test system: HL-60(TB) leukemia
[11] = test system: HCT-116 colon
[12] = test system: OVCAR-5 ovarian
[13] = test system: NCI-H23 lung
[14] = test system: ACHN renal
[15] = test system: SR leukemia
[16] = test system: SNB-19 CNS
[17] = test system: SF-295 CNS
[18] = test system: TK-10 renal
[19] = test system: RPMI-8226 leukemia
[20] = test system: SF-268 CNS
[21] = test system: UO-31 renal
[22] = test system: SK-OV-3 ovarian
[23] = test system: SK-MEL-2 melanoma
[24] = test system: SK-MEL-28 melanoma
[25] = test system: K-562 leukemia
[26] = test system: SNB-78 CNS
[27] = test system: KM20L2 colon
[28] = test system: A498 renal
[29] = test system: OVCAR-4 ovarian
[30] = test system: SNB-75 CNS
[31] = test system: COLO 205 colon
[32] = test system: A549 NSCLC
[33] = test system: LOX IMVI melanoma
[34] = test system: U251 CNS
[35] = test system: 786-0 renal
[36] = test system: NCI-H460 lung
[37] = test system: HT29 colon
[38] = test system: SN12C renal
[39] = test system: XF 498 CNS
[40] = test system: DLD-1 colon
[41] = test system: UACC-62 melanoma
[42] = test system: RXF 393 renal
[43] = test system: DMS 114 small cell lung
[44] = test system: RXF-631 renal
[45] = test system: OVCAR-3 ovarian
[46] = test system: M14 melanoma
[47] = test system: SF-539 CNS
[48] = test system: KM12 colon
[49] = test system: UACC-257 melanoma
[50] = test system: SW-620 colon
[51] = test system: MALME-3M melanoma
[52] = test system: CCRF-CEM leukemia
[53] = test system: HOP-92 NSCLC
[54] = test system: DMS 273 small cell lung
[55] = test system: HOP-62 NSCLC
[56] = test system: HCT-15 colon
[57] = test system: LXFL 529 NSCLC
[58] = test system: NCI-H522 lung
[59] = test system: HCC-2998 colon

SMILES: OCC(CO)C1c2cccc3ccc4cccc1c4c23
- TGI [1]: > 100 µM
- TGI [2]: > 100 µM
- TGI [3]: > 100 µM
- TGI [4]: > 100 µM
- TGI [5]: > 100 µM
- TGI [6]: > 100 µM
- TGI [7]: > 100 µM
- TGI [8]: > 100 µM
- TGI [9]: > 100 µM
- TGI [10]: > 100 µM
- TGI [11]: > 100 µM
- TGI [12]: > 100 µM
- TGI [13]: > 100 µM
- TGI [14]: > 100 µM
- TGI [15]: > 100 µM
- TGI [16]: > 100 µM
- TGI [17]: > 100 µM
- TGI [18]: > 100 µM
- TGI [19]: > 100 µM
- TGI [20]: > 100 µM
- TGI [21]: > 100 µM
- TGI [22]: > 100 µM
- TGI [23]: > 100 µM
- TGI [24]: > 100 µM
- TGI [25]: > 100 µM
- TGI [26]: > 100 µM
- TGI [27]: > 100 µM
- TGI [28]: > 100 µM
- TGI [29]: > 100 µM
- TGI [30]: > 100 µM
- TGI [31]: > 100 µM
- TGI [32]: > 100 µM
- TGI [33]: > 100 µM
- TGI [34]: > 100 µM
- TGI [35]: > 100 µM
- TGI [36]: > 100 µM
- TGI [37]: > 100 µM
- TGI [38]: > 100 µM
- TGI [39]: > 100 µM
- TGI [40]: > 100 µM
- TGI [41]: > 100 µM
- TGI [42]: > 100 µM
- TGI [43]: > 100 µM
- TGI [44]: > 100 µM
- TGI [45]: > 100 µM
- TGI [46]: > 100 µM
- TGI [47]: > 100 µM
- TGI [48]: > 100 µM
- TGI [49]: > 100 µM
- TGI [50]: > 100 µM
- TGI [51]: > 100 µM
- TGI [52]: > 100 µM
- TGI [53]: > 100 µM
- TGI [54]: > 100 µM
- TGI [55]: > 100 µM

SMILES: COc1ccc(N(CC(=O)O)S(=O)(=O)c2ccccc2)cc1
- TGI [1]: > 100 µM
- TGI [2]: > 100 µM
- TGI [3]: > 100 µM
- TGI [4]: > 100 µM
- TGI [5]: > 100 µM
- TGI [6]: > 100 µM
- TGI [7]: > 100 µM
- TGI [8]: > 100 µM
- TGI [9]: > 100 µM
- TGI [10]: > 100 µM
- TGI [12]: > 100 µM
- TGI [13]: > 100 µM
- TGI [14]: > 100 µM
- TGI [16]: > 100 µM
- TGI [17]: > 100 µM
- TGI [18]: > 100 µM
- TGI [19]: > 100 µM
- TGI [56]: > 100 µM
- TGI [21]: > 100 µM
- TGI [22]: > 100 µM
- TGI [23]: > 100 µM
- TGI [25]: > 100 µM
- TGI [27]: > 100 µM
- TGI [28]: > 100 µM
- TGI [29]: > 100 µM
- TGI [31]: > 100 µM
- TGI [32]: > 100 µM
- TGI [33]: > 100 µM
- TGI [34]: > 100 µM
- TGI [35]: > 100 µM
- TGI [36]: > 100 µM
- TGI [57]: > 100 µM
- TGI [37]: > 100 µM
- TGI [38]: > 100 µM
- TGI [58]: > 100 µM
- TGI [39]: > 100 µM
- TGI [40]: > 100 µM
- TGI [41]: > 100 µM
- TGI [42]: > 100 µM
- TGI [44]: > 100 µM
- TGI [45]: > 100 µM
- TGI [46]: > 100 µM
- TGI [47]: > 100 µM
- TGI [48]: > 100 µM
- TGI [49]: > 100 µM
- TGI [50]: > 100 µM
- TGI [51]: > 100 µM
- TGI [52]: > 100 µM
- TGI [53]: > 100 µM
- TGI [54]: > 100 µM

SMILES: COc1ccc(NC(=O)C(=O)NO)c(OC)c1
- TGI [1]: 38.9 µM
- TGI [2]: 32.5 µM
- TGI [3]: 32 µM
- TGI [4]: 28.7 µM
- TGI [5]: 31.1 µM
- TGI [6]: 27.3 µM
- TGI [7]: 41.6 µM
- TGI [8]: 35.2 µM
- TGI [9]: 33.3 µM
- TGI [10]: 43 µM
- TGI [11]: 32.4 µM
- TGI [12]: 33.6 µM
- TGI [13]: 34.1 µM
- TGI [14]: 29.3 µM
- TGI [15]: 25.9 µM
- TGI [16]: 28.2 µM
- TGI [17]: 27 µM
- TGI [18]: 37.1 µM
- TGI [19]: 49.1 µM
- TGI [56]: 31.2 µM
- TGI [20]: 32.1 µM
- TGI [21]: 29.8 µM
- TGI [22]: 33.7 µM
- TGI [23]: 30.9 µM
- TGI [59]: 35.8 µM
- TGI [24]: 33.1 µM
- TGI [25]: 56.4 µM
- TGI [26]: 44.1 µM
- TGI [27]: 33.3 µM
- TGI [28]: 39 µM
- TGI [29]: 37.7 µM
- TGI [30]: 35.3 µM
- TGI [31]: 37.7 µM
- TGI [32]: 35.4 µM
- TGI [33]: 27.2 µM
- TGI [34]: 30.5 µM
- TGI [35]: 29.6 µM
- TGI [36]: 33.4 µM
- TGI [57]: 30.3 µM
- TGI [37]: 38.1 µM
- TGI [38]: 39.6 µM
- TGI [58]: 19 µM
- TGI [40]: 41 µM
- TGI [41]: 28.9 µM
- TGI [42]: 29.2 µM
- TGI [43]: 29 µM
- TGI [44]: 57 µM
- TGI [45]: 30.3 µM
- TGI [46]: 29.9 µM
- TGI [47]: 36.3 µM
- TGI [48]: 34.2 µM
- TGI [49]: 38 µM
- TGI [50]: 34.5 µM
- TGI [51]: 54.6 µM
- TGI [52]: 98 µM
- TGI [53]: 35.7 µM
- TGI [54]: 35.3 µM
- TGI [55]: 35.1 µM
